The results in this text go back to patent publication US20160052926A1, “NOVEL PYRIMIDINE AND PYRIDINE COMPOUNDS AND USAGE THEREOF” (HUTCHISON MEDIPHARMA LIMITED, priority 2013, published 2016).

Structures are written as SMILES.

For orientation: IC50 means the concentration at which inhibition is half-maximal.

The target in experiment [1] is Recombinant human FGFR2 (Homo sapiens, UniProt P21802). The experiment in a line: Transcreener Kinase Assay of FGFR2. It is filed as biochemical. Particulars: read-out: FGFR2 (FP) IC50.
Chain of Recombinant human FGFR2 (P21802 22-821): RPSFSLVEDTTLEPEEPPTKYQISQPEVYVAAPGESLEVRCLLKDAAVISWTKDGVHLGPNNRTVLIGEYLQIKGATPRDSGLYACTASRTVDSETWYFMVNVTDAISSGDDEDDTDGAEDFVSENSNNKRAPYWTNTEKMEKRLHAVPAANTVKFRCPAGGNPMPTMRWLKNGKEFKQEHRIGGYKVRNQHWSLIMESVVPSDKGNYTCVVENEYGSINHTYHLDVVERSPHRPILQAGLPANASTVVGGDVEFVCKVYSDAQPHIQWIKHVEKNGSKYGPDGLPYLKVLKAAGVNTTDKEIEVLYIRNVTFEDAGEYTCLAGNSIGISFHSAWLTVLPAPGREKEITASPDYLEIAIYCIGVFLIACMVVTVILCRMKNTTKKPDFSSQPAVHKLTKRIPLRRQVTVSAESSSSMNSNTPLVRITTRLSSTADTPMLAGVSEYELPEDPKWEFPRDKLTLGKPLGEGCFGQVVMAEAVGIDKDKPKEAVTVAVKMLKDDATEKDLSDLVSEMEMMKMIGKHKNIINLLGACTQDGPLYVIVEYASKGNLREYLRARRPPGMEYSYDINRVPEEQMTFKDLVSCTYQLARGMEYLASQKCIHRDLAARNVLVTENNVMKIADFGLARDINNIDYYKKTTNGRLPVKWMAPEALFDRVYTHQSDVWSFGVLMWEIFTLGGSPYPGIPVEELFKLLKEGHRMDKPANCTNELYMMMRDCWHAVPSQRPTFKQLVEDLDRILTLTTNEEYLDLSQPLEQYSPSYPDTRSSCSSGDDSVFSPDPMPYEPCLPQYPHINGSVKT
Experiment [2] concerns the target FGFR3 kinase (Homo sapiens, UniProt P22607). The experiment in a line: Z-Lyte Kinase Assay of FGFR3. It is filed as biochemical. In outline:
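FRET peptide-cleavage format: 1 h kinase reaction at RT (25-30[…]), then 1 h protease development, then stop and dual-emission read (Ex400, Em445/520 nm). Working solutions: kinase 0.7 μg/ml, Tyr 4 peptide 4 μM, ATP 300 uM in 1.33× buffer; eight compound concentrations from 1 μM, 2% DMSO final.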

The subject of experiment [3] is SNU-16. Briefly: Cellular Proliferation Assay (Cell Counting Kit-8), SNU-16. It is filed as cell-based. The settings on record: Homo sapiens, SNU-16 cells, 72 hours. An outline of the steps: (§1)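 Proliferation was read as OD at 450 nm after 1 h with CCK-8, following 72 h drug exposure at 37 °C, 5% CO2. Inhibition was calculated against cells in 0.5% DMSO minus medium blank, and the 50% point reported. The compound series (10–0.004 μM, pre-addition, in 5% DMSO) was added one day after plating KG-1, SNU-16 and RT-112 at 30,000, 5,000 and 1,000 cells/well respectively.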

Experiment [4] deals with KG-1. Briefly: Cellular Proliferation Assay (Cell Counting Kit-8), KG-1. It is filed as cell-based. The settings on record: Homo sapiens, KG1 cells, 72 hours. An outline of the steps:
as §1

Experiment [5] deals with RT-112. Briefly: Cellular Proliferation Assay (Cell Counting Kit-8), RT-112. It is filed as cell-based. The settings on record: Homo sapiens, RT-112 cells, 72 hours. An outline of the steps:
as §1

For experiment [6], the target named is Recombinant human FGFR1 (Homo sapiens, UniProt P11362). Briefly: Transcreener Kinase Assay of FGFR1. It is filed as biochemical. Particulars: read-out: FGFR1 (FP) IC50.
Chain of Recombinant human FGFR1 (P11362 22-822): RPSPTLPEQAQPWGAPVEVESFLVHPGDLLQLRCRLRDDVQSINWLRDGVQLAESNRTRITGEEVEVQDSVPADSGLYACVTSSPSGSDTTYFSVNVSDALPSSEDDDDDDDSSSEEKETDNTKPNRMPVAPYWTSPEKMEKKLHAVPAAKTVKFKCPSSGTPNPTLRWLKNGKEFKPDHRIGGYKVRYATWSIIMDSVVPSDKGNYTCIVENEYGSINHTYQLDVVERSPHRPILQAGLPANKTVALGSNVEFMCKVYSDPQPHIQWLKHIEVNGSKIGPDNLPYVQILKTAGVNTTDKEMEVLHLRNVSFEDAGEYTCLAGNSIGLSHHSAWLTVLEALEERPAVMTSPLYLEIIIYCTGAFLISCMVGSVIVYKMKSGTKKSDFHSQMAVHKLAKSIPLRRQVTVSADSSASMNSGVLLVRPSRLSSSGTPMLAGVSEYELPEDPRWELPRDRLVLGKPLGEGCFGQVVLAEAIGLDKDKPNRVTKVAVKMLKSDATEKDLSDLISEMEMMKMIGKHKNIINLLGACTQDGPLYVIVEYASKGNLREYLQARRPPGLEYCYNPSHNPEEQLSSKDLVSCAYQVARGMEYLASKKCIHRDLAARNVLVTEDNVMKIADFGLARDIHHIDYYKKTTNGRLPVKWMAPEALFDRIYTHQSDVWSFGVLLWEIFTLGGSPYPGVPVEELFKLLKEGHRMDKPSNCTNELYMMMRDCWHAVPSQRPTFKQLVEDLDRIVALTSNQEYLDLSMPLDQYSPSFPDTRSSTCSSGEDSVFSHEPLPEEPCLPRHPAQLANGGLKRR

Chain of FGFR3 kinase (P22607 23-806): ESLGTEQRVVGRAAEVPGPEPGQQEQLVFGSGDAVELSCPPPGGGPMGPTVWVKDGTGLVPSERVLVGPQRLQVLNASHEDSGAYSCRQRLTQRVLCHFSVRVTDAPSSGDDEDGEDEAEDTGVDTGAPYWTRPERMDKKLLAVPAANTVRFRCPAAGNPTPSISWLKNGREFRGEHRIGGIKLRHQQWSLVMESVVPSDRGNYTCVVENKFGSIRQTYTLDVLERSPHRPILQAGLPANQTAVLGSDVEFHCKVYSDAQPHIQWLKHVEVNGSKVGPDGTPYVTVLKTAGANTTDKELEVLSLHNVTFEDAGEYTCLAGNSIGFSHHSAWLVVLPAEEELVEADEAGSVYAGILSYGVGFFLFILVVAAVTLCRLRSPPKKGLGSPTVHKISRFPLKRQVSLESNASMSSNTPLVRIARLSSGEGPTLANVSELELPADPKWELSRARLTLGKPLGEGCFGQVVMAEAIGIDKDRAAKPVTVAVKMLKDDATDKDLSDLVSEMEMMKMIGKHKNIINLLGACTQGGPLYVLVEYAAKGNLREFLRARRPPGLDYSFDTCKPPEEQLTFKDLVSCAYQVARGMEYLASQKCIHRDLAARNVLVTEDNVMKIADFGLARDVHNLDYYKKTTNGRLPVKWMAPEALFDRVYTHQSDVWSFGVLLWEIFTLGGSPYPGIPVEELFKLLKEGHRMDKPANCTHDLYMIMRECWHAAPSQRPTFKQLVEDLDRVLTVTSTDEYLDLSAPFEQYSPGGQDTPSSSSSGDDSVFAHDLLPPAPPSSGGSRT

On to `CNC(=O)c1cc(CCc2cnc(Nc3cnn(CC(C)C)c3)nc2)c(F)c(OC)c1` [Compound 118], for which the IC50 in experiment [1] turned out to be 12 nM; in experiment [2], 34 nM; in experiment [3], 29 nM; in experiment [4] it was 26 nM; in experiment [5], 220 nM; in experiment [6], 23 nM.
Turning to `CNC(=O)c1cc(CCc2cnc(Nc3cnn([C@@H]4CCN(C)C4)c3)nc2)c(F)c(OC)c1` [Compound 169], the IC50 in experiment [1] stood at 14 nM; in experiment [2], 15 nM; in experiment [3] it was 18 nM; in experiment [4], 17 nM; in experiment [5], 539 nM; in experiment [6] it was 15 nM.
With `CNC(=O)c1cc(CCc2cnc(Nc3cnn([C@@H]4CCOC4)c3)nc2)c(F)c(OC)c1` [Compound 123], the IC50 in experiment [1] is 5 nM; in experiment [2] it was 13 nM; in experiment [3], 18 nM; in experiment [4] it was 26 nM; in experiment [5], 135 nM; in experiment [6], 9 nM.
For the compound `CCn1cc(Nc2ncc(CCc3cc(C(=O)NC)cc(OC)c3F)cn2)cn1` [Compound 100, 3-(2-(2-(1-ethyl-1H-pyrazol-4-ylamino)pyrimidin-5-yl)ethyl)-4-fluoro-5-methoxy-N-methylbenzamide], the IC50 was 5 nM in experiment [1]; 13 nM in experiment [2]; 24 nM in experiment [3]; 21 nM in experiment [4]; 94 nM in experiment [5]; 12 nM in experiment [6].
Regarding `COc1cc(C(=O)NC2CC2)cc(CCc2cnc(Nc3cnn(C)c3)nc2)c1Cl` [Compound 157], the half-inhibitory concentration (IC50) was 10 nM in experiment [1]; 19 nM in experiment [2]; 48 nM in experiment [3]; 48 nM in experiment [4]; 254 nM in experiment [5]; 20 nM in experiment [6].
As to `CCN(CC)CCn1cc(Nc2ncc(OCc3cc(C(=O)NC)cc(OC)c3F)cn2)cn1` [Compound 189], the IC50 turned out to be 20 nM in experiment [1]; 13 nM in experiment [2]; 28 nM in experiment [3]; 38 nM in experiment [4]; 23 nM in experiment [5]; 23 nM in experiment [6].
Turning to `CONC(=O)c1cc(COc2cnc(Nc3cnn(C)c3)nc2)c(Cl)c(OC)c1` [Compound 185], the half-inhibitory concentration (IC50) worked out at 3 nM in experiment [1]; 4 nM in experiment [2]; 2 nM in experiment [3]; 2 nM in experiment [4]; 5 nM in experiment [5]; 5 nM in experiment [6].
Consider `CNC(=O)c1cc(CCc2cnc(Nc3ccc(N4C[C@@H](C)N[C@@H](C)C4)cc3)nc2)c(F)c(OC)c1` [Compound 21, 3-(2-(2-((4-((3R,5S)-3,5-dimethylpiperazin-1-yl)phenyl)amino)pyrimidin-5-yl)ethyl)-4-fluoro-5-methoxy-N-methylbenzamide], for which the IC50 in experiment [1] worked out at 6 nM; in experiment [2] it was 14 nM; in experiment [3] it was 16 nM; in experiment [4], 40 nM; in experiment [5] it was 52 nM; in experiment [6], 9 nM.
For `CONC(=O)c1cc(CCc2cnc(Nc3ccccc3)nc2)cc(OC)c1` [Compound 22], the IC50 came out at 5 nM in experiment [1]; 20 nM in experiment [2]; 26 nM in experiment [3]; 28 nM in experiment [4]; 84 nM in experiment [5]; 9 nM in experiment [6].
For the compound `CNC(=O)c1cc(CCc2cnc(Nc3cnn([C@@H]4CCCN(C)C4)c3)nc2)c(F)c(OC)c1` [Compound 165, (R)-4-fluoro-3-methoxy-N-methyl-5-(2-(2-(1-(1-methylpiperidin-3-yl)-1H-pyrazol-4-ylamino)pyrimidin-5-yl)ethyl)benzamide], the IC50 in experiment [1] amounted to 7 nM; in experiment [2], 7 nM; in experiment [3], 23 nM; in experiment [4], 56 nM; in experiment [5], 106 nM; in experiment [6], 11 nM.
Take `CNC(=O)c1cc(CCc2cnc(Nc3cnn(C4CC4)c3)nc2)c(F)c(OC)c1` [Compound 107]: the IC50 in experiment [1] was determined as 7 nM; in experiment [2] it was 14 nM; in experiment [3] it was 26 nM; in experiment [4], 28 nM; in experiment [5], 90 nM; in experiment [6], 10 nM.
Consider `CNC(=O)c1cc(CCc2cnc(Nc3cnn(C)c3C)nc2)c(F)c(OC)c1` [Compound 105], for which the IC50 in experiment [1] was 11 nM; in experiment [2] it was 30 nM; in experiment [3], 48 nM; in experiment [4] it was 201 nM; in experiment [5], 428 nM; in experiment [6] it was 31 nM.
`CNC(=O)c1cc(OC)c(F)c(COc2cnc(Nc3ccc(N4C[C@@H](C)N[C@@H](C)C4)cc3)nc2)c1F` [Compound 199]: the IC50 turned out to be 7 nM in experiment [1]; 8 nM in experiment [2]; 18 nM in experiment [3]; 20 nM in experiment [4]; 41 nM in experiment [5]; 13 nM in experiment [6].
With `CNC(=O)c1cc(CCc2cnc(Nc3cnn(C[C@@H](C)O)c3)nc2)c(Cl)c(OC)c1` [Compound 150], the half-maximal inhibitory concentration (IC50) in experiment [1] amounted to 6 nM; in experiment [2] it was 6 nM; in experiment [3], 33 nM; in experiment [4] it was 31 nM; in experiment [5], 62 nM; in experiment [6] it was 15 nM.
For the compound `CONC(=O)c1cc(CCc2cnc(Nc3ccc(N4C[C@@H](C)N[C@@H](C)C4)c(F)c3)nc2)cc(OC)c1` [Compound 54], the IC50 is 3 nM in experiment [1]; 6 nM in experiment [2]; 10 nM in experiment [3]; 18 nM in experiment [4]; 31 nM in experiment [5]; 6 nM in experiment [6].
As for `CCN1CCN(c2ccc(Nc3ncc(/C=C/c4cc(C(=O)NC)cc(OC)c4F)cn3)cc2)CC1` [Compound 87], the IC50 was found to be 10 nM in experiment [1]; 36 nM in experiment [2]; 50 nM in experiment [3]; 25 nM in experiment [4]; 84 nM in experiment [5]; 10 nM in experiment [6].
On to `CNC(=O)c1cc(COc2ccc(Nc3ccc(N4C[C@@H](C)N[C@@H](C)C4)cc3)nc2)c(F)c(OC)c1` [Compound 191], for which the IC50 in experiment [1] stood at 68 nM; in experiment [2], 334 nM; in experiment [3] it was 534 nM; in experiment [4], 647 nM; in experiment [5], 540 nM; in experiment [6], 181 nM.
Take `CCn1cc(Nc2ncc(CCc3c(F)c(C(=O)NC)cc(OC)c3Cl)cn2)cn1` [Compound 80]: the concentration for half-maximal inhibition (IC50) in experiment [1] turned out to be 16 nM; in experiment [2], 19 nM; in experiment [3], 39 nM; in experiment [4] it was 33 nM; in experiment [5] it was 24 nM; in experiment [6], 24 nM.
As to `CCN(CC)CCCn1cc(Nc2ncc(CCc3cc(C(=O)NC)cc(OC)c3Cl)cn2)cn1` [Compound 88], the 50% inhibitory concentration (IC50) in experiment [1] turned out to be 6 nM; in experiment [2], 9 nM; in experiment [3] it was 13 nM; in experiment [4], 214 nM; in experiment [5], 27 nM; in experiment [6] it was 15 nM.
In the case of `CNC(=O)c1cc(CCc2cnc(Nc3cnn(-c4ccc(C)nc4)c3)nc2)c(F)c(OC)c1` [Compound 134], the IC50 in experiment [1] was 8 nM; in experiment [2], 24 nM; in experiment [3], 34 nM; in experiment [4] it was 33 nM; in experiment [5] it was 84 nM; in experiment [6] it was 71 nM.
As for `CNC(=O)c1cc(CCc2cnc(Nc3ccnc(C)c3)nc2)c(F)c(OC)c1` [Compound 60, 4-fluoro-3-methoxy-N-methyl-5-(2-(2-((2-methylpyridin-4-yl)amino)pyrimidin-5-yl)ethyl)benzamide], the IC50 in experiment [1] was 7 nM; in experiment [2] it was 23 nM; in experiment [3], 46 nM; in experiment [4] it was 51 nM; in experiment [5] it was 137 nM; in experiment [6], 16 nM.
`CNC(=O)c1cc(CCc2cnc(Nc3cnn(C(C)C)c3)nc2)c(Cl)c(OC)c1` [Compound 121]: the concentration for half-maximal inhibition (IC50) was 6 nM in experiment [1]; 15 nM in experiment [2]; 18 nM in experiment [3]; 7 nM in experiment [4]; 65 nM in experiment [5]; 9 nM in experiment [6].
For the compound `CCN1CCN(c2ccc(Nc3ncc(CCc4cc(OC)cc(C(=O)NC)c4)cn3)cc2)CC1` [Compound 1, 3-(2-(2-((4-(4-ethylpiperazin-1-yl)phenyl)amino)pyrimidin-5-yl)ethyl)-5-methoxy-N-methylbenzamide], the IC50 turned out to be 19 nM in experiment [1]; 28 nM in experiment [2]; 95 nM in experiment [3]; 49 nM in experiment [4]; 612 nM in experiment [5]; 24 nM in experiment [6].
Regarding `CNC(=O)c1cc(CCc2cnc(Nc3cnn(-c4cccnc4)c3)nc2)c(F)c(OC)c1` [Compound 128], the IC50 in experiment [1] was found to be 10 nM; in experiment [2], 14 nM; in experiment [3] it was 15 nM; in experiment [4] it was 47 nM; in experiment [5], 112 nM; in experiment [6] it was 20 nM.
As for `CNC(=O)c1cc(CCc2cnc(Nc3ccc(-n4cccn4)cc3)nc2)c(F)c(OC)c1` [Compound 35], the IC50 turned out to be 9 nM in experiment [1]; 83 nM in experiment [2]; 157 nM in experiment [3]; 189 nM in experiment [4]; 455 nM in experiment [5]; 30 nM in experiment [6].
